{"source": "patent US12492163B2", "about": "“9H-fluorene derivatives or their pharmaceutically acceptable salts” (priority 2020, dated 2025)", "key": {"mGAT2": {"target": "mGAT2 (Mus musculus (Mouse), UniProt P31651)", "sequence (P31651 whole entry)": "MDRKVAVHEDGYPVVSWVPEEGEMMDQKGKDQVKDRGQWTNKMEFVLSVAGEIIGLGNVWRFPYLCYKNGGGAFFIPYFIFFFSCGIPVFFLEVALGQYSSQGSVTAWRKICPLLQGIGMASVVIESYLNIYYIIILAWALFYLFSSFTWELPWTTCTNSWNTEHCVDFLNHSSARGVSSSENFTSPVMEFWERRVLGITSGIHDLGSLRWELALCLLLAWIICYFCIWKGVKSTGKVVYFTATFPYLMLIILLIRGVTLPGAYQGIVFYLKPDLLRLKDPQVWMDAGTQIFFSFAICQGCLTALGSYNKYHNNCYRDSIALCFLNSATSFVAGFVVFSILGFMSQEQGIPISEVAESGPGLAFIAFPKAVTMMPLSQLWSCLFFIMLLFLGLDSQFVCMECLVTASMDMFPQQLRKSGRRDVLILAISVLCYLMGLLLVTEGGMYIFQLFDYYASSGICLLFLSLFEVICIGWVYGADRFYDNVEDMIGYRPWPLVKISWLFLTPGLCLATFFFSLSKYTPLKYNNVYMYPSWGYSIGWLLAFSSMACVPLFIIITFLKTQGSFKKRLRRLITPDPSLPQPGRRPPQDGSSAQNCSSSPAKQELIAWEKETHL", "experiment": "[3H]GABA uptake inhibition, mGAT2 in HEK293 cells", "type": "cell-based", "conditions": "inhibitor at 100 μM; remaining reuptake", "protocol": "Exemplary compounds according to the invention were screened at the Ludwig-Maximilian University of Munich to determine the inhibitory ability towards four mouse GAT transporters (mGAT1-mGAT4). […] The biological material was stably transfected human embryonic kidney HEK293 cells, expressing genes to the appropriate transporters. The generated radioactivity was measured with a liquid scintillation counter. […] These determinations were made according to the procedure described in detail in A. Kragler, G. Höfner, K. T. Wanner, Novel parent structures for inhibitors of the murine GABA transporters mGAT3 and mGAT4, Eur. J. Pharmacol. 519 (2005) 43-47."}, "C57BL/6J mice": {"system": "C57BL/6J mice", "experiment": "Barnes maze test (scopolamine)", "type": "in vivo, Mus musculus", "protocol": "The research was conducted at the Department of Pharmacodynamics, Faculty of Pharmacy, Jagiellonian University in Krakow. All procedures were approved by the 1st and 2nd Local Ethics Committee for Animal Experiments in Krakow (consent no. 53/2017 and 250/2019) and were performed in accordance with the applicable European Union regulation (86/609/EEC). Males of two different strains of domestic mice (Mus musculus) were used in the study: Albino Swiss CD-1 (body weight approx. 20-24 g, age approx. 6 weeks) and C57BL/6J mice (body weight approx. 18-22 g, age approx. 6 weeks). The CD-1 strain was used for the passive avoidance, spontaneous mobility and rotating rod tests, while the C57BL/6J mice were used for the Morris water maze and the Barnes' maze. The animals were kept in standard, appropriately sized cages, divided into groups with a maximum of 10 animals. The animals in the study groups in the learning phase were intraperitoneally administered the test compound 1 h before the start of the experiments (doses in the preliminary test, i.e. in the passive avoidance test: 10, 30 and 60 mg/kg), and 30 minutes later, 1 mg/kg of scopolamine subcutaneously. Two control groups were used in the tests to assess the procognitive activity of JT-3—one of them received saline and the other saline and scopolamine.\nThe test is used to study spatial (hippocampal-dependent) memory. […] Barnes' maze has 18 escape holes (escape points) evenly spaced on the outer edges of the circular platform, and only one of them leads to so-called escape box, where the mouse can hide. For the first four days (acquisition phase), the mouse was placed in the center of the maze in the starting chamber, the light was turned on, then the chamber was raised and time was started. The number of errors was also counted, i.e. how many holes the mouse approached before approaching the right hole for the first time, and the total number of errors until it entered the escape box. […] Each mouse was subjected to four trials a day.\nOn the fifth day, which is the recall phase (without administration of compounds), the box was removed from the escape hole and the total errors, the number of errors made up to the first approach of the mouse to the hole where the escape box was previously found and the latency to the first approach of the mouse were counted for 90 seconds to that hole were counted. The number of approaches to this hole and the time the mouse spent on it were also counted. On the twelfth day—“proper test” (without administration of compounds), the effect of the compound on long-term memory was assessed. The experiment was as in the recall phase; the same parameters were measured. Between the fifth and twelfth days, the animals were kept in home cages."}, "[1]": {"target": "horse plasma butyrylcholinesterase (eqBuChE) (Equus caballus (Horse), UniProt P81908)", "sequence (P81908 whole entry)": "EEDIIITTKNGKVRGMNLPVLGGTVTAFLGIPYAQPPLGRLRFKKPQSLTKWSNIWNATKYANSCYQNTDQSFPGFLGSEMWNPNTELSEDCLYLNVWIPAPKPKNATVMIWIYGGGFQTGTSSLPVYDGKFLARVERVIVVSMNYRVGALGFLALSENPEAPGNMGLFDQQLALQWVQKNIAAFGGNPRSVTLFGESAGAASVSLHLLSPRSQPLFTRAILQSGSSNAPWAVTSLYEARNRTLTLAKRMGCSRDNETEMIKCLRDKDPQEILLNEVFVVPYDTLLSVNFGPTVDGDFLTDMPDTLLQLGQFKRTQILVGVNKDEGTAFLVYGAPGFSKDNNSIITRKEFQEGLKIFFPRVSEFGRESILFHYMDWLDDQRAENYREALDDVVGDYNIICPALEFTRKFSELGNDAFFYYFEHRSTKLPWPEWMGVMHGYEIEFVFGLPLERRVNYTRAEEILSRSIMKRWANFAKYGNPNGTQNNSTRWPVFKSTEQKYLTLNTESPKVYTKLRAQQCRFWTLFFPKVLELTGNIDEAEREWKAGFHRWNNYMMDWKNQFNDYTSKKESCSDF", "experiment": "Ellman's test, inhibition of horse plasma butyrylcholinesterase", "type": "biochemical", "in_short": "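Modified Ellman assay: compound preincubated 5 min with enzyme and DTNB in 0.1 M phosphate buffer pH 8.0 at 25° C (eqBuChE) or 36° C (hBuChE), then butyrylthiocholine added; absorbance change at 412 nm read after 5 min. Screening at 10 μM (eqBuChE) or 1 μM (hBuChE); IC50 by non-linear regression, triplicates.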"}}}
{"smiles": "O[C@H](CNCC1CC1)[C@H](Cc1ccccc1)NC1c2ccccc2-c2ccccc21", "note": "[JT-3, (2R,3S)-3-((9H-fluoren-9-yl)amino)-1-((cyclopropylmethyl)amino)-4-phenylbutan-2-ol]", "values": [{"measurement": "percentage of [3H]GABA reuptake retained, mGAT2", "setting": "mGAT2", "value": 51, "unit": "%"}, {"measurement": "number of errors made before finding the escape site, acquisition phase", "setting": "C57BL/6J mice; 10 mg/kg i.p., days 1-4", "value": "no statistically significant differences"}, {"measurement": "latency to find the escape site, acquisition phase vs scopolamine control", "setting": "C57BL/6J mice; 10 mg/kg i.p., fourth day of the test, p<0.05", "value": "Statistically significant differences"}, {"measurement": "recall phase activity", "setting": "C57BL/6J mice; fifth day, 10 mg/kg i.p. on days 1-4", "value": "not active"}, {"measurement": "number of errors made to find the escape zone vs scopolamine control", "setting": "C57BL/6J mice; twelfth day, 10 mg/kg i.p. on days 1-4, p<0.0001", "value": "the reduction in errors was also statistically significant"}, {"measurement": "latency to find the escape zone vs scopolamine control", "setting": "C57BL/6J mice; twelfth day, 10 mg/kg i.p. on days 1-4, p<0.05", "value": "the reduction in latency was also statistically significant"}, {"measurement": "IC50", "setting": "[1]", "value": 0.313, "unit": "µM"}]}
